Consider 3 compounds from US20250034579A1, “METHODS AND COMPOSITIONS FOR GENETICALLY MODIFYING HUMAN GUT MICROBES” (Cornell University, priority 2021, published 2025).

Molecules are shown by their SMILES.

Series [1] relates to Bacteroides and Erysipelotrichaceae microbes. As to the kind of experiment: Growth curve of bacteria in the presence of bile acids (OD600). The series is classed as cell-based. The following applies: 500 μM bile acid, DMSO control; 2 Bacteroides, 7 Erysipelotrichaceae. The method, then:
Bacteroides (Bacteroides fragilis 3112 (Bac1) and Bacteroides vulgatus ATCC 8482 (Bac2)) and Erysipelotrichaceae (Clostridium ramosum ATCC 25554 (Ery1), Erysipelatoclostridium ramosum strain 113-1 (Ery2), Clostridium ramosum DSM 24812 (Ery3), Clostridium ramosum DSM 1402 (Ery4), HM-173 Clostridium innocuum 6_1_30 (Ery5), Clostridium innocuum DSM 22910 (Ery6) and Holdemania filiformis DSM 12042 (Ery7)) were streaked from a glycerol stock onto TSAB agar plates and incubated anaerobically for ˜ 24 h at 37° C. Three colonies were inoculated into 1 ml of Mega broth and were anaerobically cultured for overnight at 37° C. Cells were diluted 1,000-fold into Mega broth to reach late-log phase. Then 5 μL of the culture was resuspended in 145 μL broth, loaded into a 96-well plated, and incubated anaerobically at 37° C. in Multiskan Sky Microplate Spectrophotometer (Thermo Fisher Scientific). Four bile acids (CA, 7-oxoCA, DCA, and 3-oxoDCA, 500 μM each) were tested with their solvent DMSO as control. Optical densities at 600 nm (OD600) were recorded every 60 min until the cultures reached the stationary phase. Bacterial growth curves were performed in triplicate with each biological replicate deriving from a single colony.

Series [2] deals with Erysipelotrichaceae microbes. It is filed as cell-based. The following applies: in vitro consortium of 2 Bacteroides and 7 Erysipelotrichaceae; DCA at 0, 250 and 500 μM.
The conditions of series [3]: SPF mice; drinking water with thiamphenicol 15 μg/ml and erythromycin 10 μg/ml.
Series [4] relates to Bacteroidia (Prevotella and Bacteroides) microbes. As to the kind of experiment: Antibiotics test of Gram-negative Bacteroidia strains on agar plates. The series is classed as cell-based. The following applies: 66 Bacteroidia strains; TSAB plates with 15 μg/mL thiamphenicol (or MICs).

`C[C@H](CCC(=O)O)[C@H]1CC[C@H]2[C@@H]3CC[C@@H]4CC(=O)CC[C@]4(C)[C@H]3C[C@H](O)[C@]12C` [3-oxo DCA]: the “resistance of Erysipelotrichaceae microbes versus Bacteroides microbes (growth curve)” value in series [1] was “more resistant”. For the compound `C[C@H](CCC(=O)O)[C@H]1CC[C@H]2[C@@H]3CC[C@@H]4C[C@H](O)CC[C@]4(C)[C@H]3C[C@H](O)[C@]12C` [DCA, deoxycholic acid], in series [1], the “resistance of Erysipelotrichaceae microbes versus Bacteroides microbes (growth curve)” value was “more resistant”. In addition, the “expansion of Erysipelotrichaceae microbes (relative fold change by qPCR)” value in series [2] is recorded as “drives expansion”.

Take `CS(=O)(=O)c1ccc([C@@H](O)[C@@H](CO)NC(=O)C(Cl)Cl)cc1` [thiamphenicol]: the “accumulation of supplemented antibiotic in the feces” value in series [3] is reported as roughly 5 pmol/mg. Besides, the resistance against thiamphenicol entry in series [4] is on record as “not resistant”.
